Laboratory results: ChEMBL document CHEMBL4004868, “Synthesis and in vitro biological evaluation of novel quinazoline derivatives” (Bioorg Med Chem Lett, 2017)
Calls of active or inactive are those of the source. The rule behind the calls is not given here.

Key:
A-431 = assay: Cytotoxicity against human A431 cells assessed as decrease in cell viability after 72 hrs by MTT assay; format: functional
SW480 = assay: Cytotoxicity against human SW480 cells assessed as decrease in cell viability after 72 hrs by MTT assay; format: functional
NCI-H1975 = assay: Cytotoxicity against human NCI-H1975 cells assessed as decrease in cell viability after 72 hrs by MTT assay; format: functional
A549 [1] = assay: Cytotoxicity against human A549 cells assessed as decrease in cell viability after 72 hrs by MTT assay; format: functional
[2] = molecular target: T1, Epidermal growth factor receptor (Homo sapiens, UniProt P00533); assay: Inhibition of wild type recombinant EGFR (unknown origin) using poly (Glu,Tyr) 4:1 as substrate after 60 mins by ELISA
T1 sequence (P00533 whole entry): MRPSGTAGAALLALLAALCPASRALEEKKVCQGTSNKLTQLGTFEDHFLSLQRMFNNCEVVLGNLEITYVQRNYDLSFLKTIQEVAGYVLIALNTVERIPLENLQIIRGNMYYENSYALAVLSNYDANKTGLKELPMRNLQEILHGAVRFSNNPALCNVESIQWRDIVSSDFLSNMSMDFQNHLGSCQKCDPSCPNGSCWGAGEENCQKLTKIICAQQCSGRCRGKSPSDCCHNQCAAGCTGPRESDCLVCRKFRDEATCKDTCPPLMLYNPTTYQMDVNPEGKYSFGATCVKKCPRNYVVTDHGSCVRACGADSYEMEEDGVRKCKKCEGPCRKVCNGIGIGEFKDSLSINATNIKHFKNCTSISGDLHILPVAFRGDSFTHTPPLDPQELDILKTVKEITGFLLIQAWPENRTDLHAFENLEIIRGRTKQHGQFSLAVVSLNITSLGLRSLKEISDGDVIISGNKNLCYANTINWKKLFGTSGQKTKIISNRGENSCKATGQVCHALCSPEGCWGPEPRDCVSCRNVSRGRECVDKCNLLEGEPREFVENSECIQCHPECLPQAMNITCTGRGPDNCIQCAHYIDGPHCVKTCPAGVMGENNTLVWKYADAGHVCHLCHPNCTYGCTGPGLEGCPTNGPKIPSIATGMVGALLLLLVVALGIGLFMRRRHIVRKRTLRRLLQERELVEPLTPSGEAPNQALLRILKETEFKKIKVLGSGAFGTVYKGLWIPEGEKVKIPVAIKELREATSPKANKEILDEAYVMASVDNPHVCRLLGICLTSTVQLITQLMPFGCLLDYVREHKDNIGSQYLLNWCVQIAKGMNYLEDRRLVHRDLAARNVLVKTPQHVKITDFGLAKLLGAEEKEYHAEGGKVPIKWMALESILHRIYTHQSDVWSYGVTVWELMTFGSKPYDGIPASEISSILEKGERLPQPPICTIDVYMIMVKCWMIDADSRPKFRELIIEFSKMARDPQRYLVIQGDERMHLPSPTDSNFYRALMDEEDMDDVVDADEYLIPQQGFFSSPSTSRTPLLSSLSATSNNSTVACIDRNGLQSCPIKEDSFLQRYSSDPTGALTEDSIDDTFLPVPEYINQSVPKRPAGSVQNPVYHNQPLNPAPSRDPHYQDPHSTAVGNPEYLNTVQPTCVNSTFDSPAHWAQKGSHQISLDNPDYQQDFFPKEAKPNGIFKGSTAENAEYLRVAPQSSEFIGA

[3] = molecular target: T1, Epidermal growth factor receptor; assay: Inhibition of EGFR phosphorylation at Y1068 in human NCI-H1975 cells at 50 uM preincubated for 2 hrs followed by EGF induction measured after 10 mins by Western blot method; format: cell-based
[4] = molecular target: T1, Epidermal growth factor receptor; assay: Inhibition of EGFR phosphorylation at Tyr residue in human A549 cells at 1 uM preincubated for 2 hrs followed by EGF induction measured after 10 mins by Western blot method; format: cell-based
A549 [5] = assay: Effect on total GAPDH levels in human A549 cells at 1 to 50 uM after 2 hrs by Western blot method; format: ADME, cell-based; details: a549, 2 h
A549 [6] = assay: Effect on total Akt levels in human A549 cells at 1 to 50 uM after 2 hrs by Western blot method; format: ADME, cell-based; details: a549, 2 h
A549 [7] = assay: Effect on total Erk levels in human A549 cells at 1 to 50 uM after 2 hrs by Western blot method; format: ADME, cell-based; details: a549, 2 h
[8] = molecular target: T1, Epidermal growth factor receptor; assay: Inhibition of EGFR in human NCI-H1975 cells assessed as decrease in Akt phosphorylation at S473 at 50 uM preincubated for 2 hrs followed by EGF induction measured after 10 mins by Western blot method; format: cell-based
[9] = molecular target: T1, Epidermal growth factor receptor; assay: Inhibition of EGFR in human A549 cells assessed as decrease in ERK1/2 phosphorylation at T202/204 at 1 uM preincubated for 2 hrs followed by EGF induction measured after 10 mins by Western blot method; format: cell-based
[10] = molecular target: T1, Epidermal growth factor receptor; assay: Inhibition of EGFR phosphorylation at Tyr residue in human NCI-H1975 cells at 50 uM preincubated for 2 hrs followed by EGF induction measured after 10 mins by Western blot method; format: cell-based
[11] = molecular target: T1, Epidermal growth factor receptor; assay: Inhibition of EGFR in human NCI-H1975 cells assessed as decrease in Erk1/2 phosphorylation at T202/204 at 50 uM preincubated for 2 hrs followed by EGF induction measured after 10 mins by Western blot method; format: cell-based
A549 [12] = assay: Effect on total EGFR levels in human A549 cells at 1 to 50 uM after 2 hrs by Western blot method; format: ADME, cell-based; details: a549, 2 h
[13] = molecular target: T1, Epidermal growth factor receptor; assay: Inhibition of EGFR in human A549 cells assessed as decrease in Akt phosphorylation at S473 at 1 uM preincubated for 2 hrs followed by EGF induction measured after 10 mins by Western blot method; format: cell-based
[14] = molecular target: T1, Epidermal growth factor receptor; assay: Inhibition of EGFR phosphorylation at Y1068 in human A549 cells at 1 uM preincubated for 2 hrs followed by EGF induction measured after 10 mins by Western blot method; format: cell-based

Structure (SMILES) | IG50 (A-431) [µM] | IG50 (SW480) [µM] | IG50 (NCI-H1975) [µM] | IG50 (A549 [1]) [µM] | other results
CC(=O)OCc1ccc(-c2ccc3ncnc(Nc4ccc(OCc5cccc(F)c5)c(Cl)c4)c3c2)o1 | 8.33 | 5.18 | 6.78 | 5.49 | –
C#Cc1cccc(Nc2ncnc3ccc(-c4ccc(COC(C)=O)o4)cc23)c1 | 1.28 | 14.97 | 5.4 | 4.05 | –
C#Cc1cccc(Nc2ncnc3ccc(-c4ccc(CO)o4)cc23)c1 | 3.21 | >100 | >100 | >100 | IC50 [2]: 15.7 nM
CS(=O)(=O)CCNCc1ccc(-c2ccc3ncnc(Nc4ccc(F)c(Cl)c4)c3c2)o1 | 39.34 | 60.59 | 83.61 | >100 | IC50 [2]: 24 nM
OCc1ccc(-c2ccc3ncnc(Nc4ccc(OCc5cccc(F)c5)c(Cl)c4)c3c2)o1 | 3.64 | 5.58 | 3.01 | 7.35 | inhibition [3]: Active; inhibition [4]: Active; Activity (A549 [5]): Non-Toxic; Activity (A549 [6]): Non-Toxic; Activity (A549 [7]): Non-Toxic; inhibition [8]: Active; inhibition [9]: Active; inhibition [10]: Active; IC50 [2]: 5.06 nM; inhibition [11]: Active; Activity (A549 [12]): Non-Toxic; inhibition [13]: Active; inhibition [14]: Active
C/C=C/c1ccc(Nc2ncnc3ccc(-c4ccc(CO)o4)cc23)cc1 | 21.43 | 51.25 | 37.93 | 38.24 | –
C/C=C/c1ccc(Nc2ncnc3ccc(-c4ccc(CNCCS(C)(=O)=O)o4)cc23)cc1 | 37.56 | 56.34 | >100 | 84.5 | –
OCc1ccc(-c2ccc3ncnc(Nc4ccc(F)c(Cl)c4)c3c2)o1 | 3.91 | >100 | >100 | >100 | –
C#Cc1cccc(Nc2ncnc3ccc(-c4ccc(CNCCS(C)(=O)=O)o4)cc23)c1 | 5.78 | 13.38 | 14.92 | 11.35 | –
C/C=C/c1ccc(Nc2ncnc3ccc(-c4ccc(COC(C)=O)o4)cc23)cc1 | 5.53 | 11.18 | 40.85 | 20.61 | –
CS(=O)(=O)CCNCc1ccc(-c2ccc3ncnc(Nc4ccc(OCc5cccc(F)c5)c(Cl)c4)c3c2)o1 [LAPATINIB] | 4.8 | 12.58 | 9.08 | 14.9 | –
CC(=O)OCc1ccc(-c2ccc3ncnc(Nc4ccc(F)c(Cl)c4)c3c2)o1 | 10.75 | 43.18 | 54.13 | >100 | –
